Reference: US12077503B2, “Substituted cyclic amides and their use as herbicides” (FMC CORPORATION, priority 2015, dated 2024)

Columns and labels:
Assay in all cases: Test C postemergence
Type in all cases: in vivo
Details in all cases: scale 0 to 100, 0 no effect, 100 complete control
[1] = system: nutsedge, yellow (yellow nutsedge, Cyperus esculentus)
Description: (§1) Seeds of plant species selected from blackgrass (Alopecurus myosuroides), ryegrass, Italian (Italian ryegrass, Lolium multiflorum), wheat (winter wheat, Triticum aestivum), Galium (catchweed bedstraw, Galium aparine), corn (Zea mays), crabgrass, large (large crabgrass, Digitaria sanguinalis), foxtail, giant (giant foxtail, Setaria faberii), johnsongrass (Sorghum halepense), lambsquarters (Chenopodium album), morningglory (Ipomoea coccinea), nutsedge, yellow (yellow nutsedge, Cyperus esculentus), pigweed (Amaranthus retroflexus), ragweed (common ragweed, Ambrosia elatior), soybean (Glycine max), barnyardgrass (Echinochloa crus-galli), oilseed rape (Brassica napus), waterhemp (common waterhemp, Amaranthus rudis) and velvetleaf (Abutilon theophrasti) were planted into a blend of loam soil and sand and treated preemergence with test chemicals formulated in a non-phytotoxic solvent mixture which included a surfactant.
(§2) At the same time, plants selected from these crop and weed species and also Kochia (Kochia scoparia), oat, wild (wild oat, Avena fatua), and chickweed (common chickweed, Stellaria media) were planted in pots containing Sunshine Redi-Earth® planting medium comprising spaghnum peat moss, vermiculite, starter nutrients and dolomitic limestone and treated with postemergence applications of test chemicals formulated in the same manner. Plants ranged in height from 2 to 18 cm (1- to 4-leaf stage) for postemergence treatments. Treated plants and controls were maintained in a greenhouse for 13 to 15 d, after which time all species were compared to controls and visually evaluated. Plant response ratings, summarized in Table C, are based on a scale of 0 to 100 where 0 is no effect and 100 is complete control. A dash (-) response means no test result.

[2] = system: oilseed rape (Brassica napus)
Description: as §1, §2

[3] = system: morningglory (Ipomoea coccinea)
Description: as §1, §2

With `O=C1NCC(c2ccc3c(c2)OC(F)(F)O3)C1C(=O)Nc1cccc(F)c1F` (stereo not drawn) [Compound 635] the “Plant response rating, Nutsedge, Yellow” value ([1]; 31 g ai/ha) was 0, the “Plant response rating, Nutsedge, Yellow” value ([1]; 62 g ai/ha) was 0 and the “Plant response rating, Nutsedge, Yellow” value ([1]; 125 g ai/ha) was 0. For the same compound, the “Plant response rating, Nutsedge, Yellow” value ([1]; 250 g ai/ha) was 0, the “Plant response rating, Oilseed Rape” value ([2]; 31 g ai/ha) was 50 and the “Plant response rating, Oilseed Rape” value ([2]; 62 g ai/ha) was 45. For the same compound, the “Plant response rating, Oilseed Rape” value ([2]; 125 g ai/ha) was 10, the “Plant response rating, Oilseed Rape” value ([2]; 250 g ai/ha) was 80 and the “Plant response rating, Morningglory” value ([3]; 31 g ai/ha) was 25. The “Plant response rating, Morningglory” value ([3]; 62 g ai/ha) was 40, the “Plant response rating, Morningglory” value ([3]; 125 g ai/ha) was 45 and the “Plant response rating, Morningglory” value ([3]; 250 g ai/ha) was 45.
